System: Gram-positive bacteria, including methicillin-resistant S. aureus and vancomycin-resistant E. faecium
Test: Antimicrobial susceptibility assay, summary over Gram-positive bacteria
Type: cell-based
Settings: Staphylococcus aureus; Gram-positive bacteria incl. MRSA and VREF
Source text: The bacterial strains S. aureus ATCC 29213, S. aureus ATCC 29247, S. aureus ATCC BAA-41, E. faecium ATCC 49624, E. faecium ATCC 700221, E. faecalis ATCC 29212, S. epidermidis ATCC 12228, E. coli ATCC 25922, and K. pneumoniae ATCC BAA-1144 used in the antimicrobial susceptibility assays were purchased from American Type Culture Collection (ATCC, USA). B. subtilis strain 168 was already available in our in-house collection. E. coli JM109 WM647 was kindly provided by Dr. W. Margolin (University of Texas-Houston Medical School). FM 4–64 was purchased from Invitrogen (Eugene, Oregon). All other chemicals and reagents were purchased from Sigma-Aldrich. Stock solutions were prepared in DMSO. The final percentage of DMSO in the assays was 1% (v/v) for all experiments.
Antimicrobial susceptibility tests were conducted in 96-well microplates using the broth microdilution procedure described in the Clinical and Laboratory Standards Institute (CLSI) guidelines. […] After incubation for 18 h at 37°C, the absorbance at 600 nm (A600) was recorded using a microplate reader (Bio-Rad laboratory Ltd., UK) and the percentage of bacterial cell inhibition with respect to vehicles (1% DMSO) was calculated. […]

## COc1ccc2cc3[n+](cc2c1OCCCOc1ccc(Cl)cc1)CCc1cc2c(cc1-3)OCO2 [Compound 2]
  MIC: 2 to 4 µg/mL
